Data taken from article PMC7003431, “Betulinic acid shows anticancer activity against equine melanoma cells and permeates isolated equine skin in vitro” (BMC Veterinary Research, 2020).
Blank lines part the entries; values can stand above or below the compound they belong to.

Experiments:
actinic keratoses = tested on: actinic keratoses; parameters: method as in PMID 18808378; conditions: 14 human patients; cited from earlier work
[1] = Franz-type diffusion cell penetration and permeation on isolated equine skin; assay type: in vitro ADME, horse; conditions: 24 h FDC
Excerpt: Skin samples from seven adult horses of different sex (three mares, two geldings, two unknown) and breed (including three Warmbloods, one Icelandic horse and one Welsh Cob pony, two unknown) were harvested at the Institute of Pathology, University of Veterinary Medicine Hannover, Foundation, Hannover, after euthanasia at the Clinic for Horses, University of Veterinary Medicine Hannover, Foundation, Hannover, for reasons unrelated to the present study. The horses’ ages ranged from 4 to 24 years, with a median of 13.5 years. Skin from the lateral thorax was dissected and stored at − 20 °C for up to 5 months.
“Basiscreme DAC” (pharmaceutical amphiphilic formulation as published in the German Drug Codex) with 1% BA and 20% medium-chain triglycerides was provided by Skinomics GmbH, Halle, Germany.
In order to investigate the penetration and permeation of 1% BA with 20% medium-chain triglycerides in “Basiscreme DAC” through equine skin, the skin samples were defrosted overnight at room temperature. The coat was clipped to a length of approximately 0.5 mm. The integrity of the skin samples was visually assessed. Skin slices of 800 μm (+/− 110 μm) thickness were obtained with an electrical dermatome (Zimmer, Eschbach, Germany). Franz-type diffusion cells (FDC) (PermeGear, Riegelsville, USA, and Gauer Glas, Püttlingen, Germany) with a diffusion area of 1.77 cm^2 and an acceptor chamber volume of approximately 12 mL were filled with PBS and 1% bovine serum albumin. The acceptor chamber content was constantly stirred with a magnetic stirrer at 500 rpm. Diffusion chambers were maintained at 34 °C to ensure a skin temperature of 32 ± 0.5 °C. Before use, equal hydration of the skin samples was obtained by 30 min immersion in PBS. After gently drying with a paper tissue, 20 mg of the drug formulation was carefully applied to the skin surface (stratum corneum) covering the complete diffusion area before mounting the skin pieces onto the FDC. The donor chamber and sampling tube were covered with parafilm.
After 24 h, the remaining donor formulation was removed from the skin with a dry cotton swab. Cotton swabs, acceptor medium and exposed areas of the skin samples, which were cut out with a scalpel blade, were stored at − 20 °C until further processing and analysis. In order to determine the amount of BA in different skin layers, frozen skin samples were fixed on tissue freezing medium (Leica Biosystems Nussloch GmbH, Nussloch, Germany) and placed in a cryostat (CryoStar™ NX70 Cryostat, Thermofisher, Darmstadt, Germany). From each skin sample slices were cut horizontally to the epidermis, starting with the stratum corneum side uppermost, and stored separately. […] After reaching a skin depth of 310 μm, slices were pooled at 5 × 20 μm until a depth of a maximum of 910 μm was reached. The blade was cleaned with tissues soaked in 70% ethanol (CG Chemikalien, Laatzen, Germany) between each cut. These cleaning tissues and skin samples were stored at − 20 °C until final analysis. An analytic high-performance liquid chromatography method was developed for BA quantification in the different skin layers, acceptor medium and cleaning utensils mentioned previously. Reverse phase analysis was performed using an Agilent 1100 system (Agilent, Waldbronn, Germany) on a Kinetex column (5 μm, C18, 100 Å, 250 × 4.6 mm; Phenomenex, Torrance, US) at 35 °C developing with acetonitrile:water (0.1% HCOOH) 4:1 (v/v) at 2.5 mL/min. The diode array detector was set at 200 nm.

[2] = tested on: primary equine dermal fibroblasts PriFi1; experiment: MTS cytotoxicity assay (CellTiter 96 AQueous One Solution); assay type: cell-based, horse; conditions: Equus caballus, Fibroblast, mean (95% CI), 6–8 experiments
Protocol: (§1) The inhibitory effect of BA on cell proliferation was evaluated using a modified crystal violet staining (CVS) assay. In brief, cells were seeded into 96-well microtiter plates with a density of 5000 cells/well to avert confluence of the cells during the experimental period. Twenty-four hours later, the cells were treated with serial dilutions of BA dissolved in DMSO and medium at nine different concentrations ranging from 1 to 100 μmol/L. The highest concentration of DMSO solvent was 0.5% in 100 μmol/L, which had neither an impact on the cell proliferation rate nor on the cell survival rate (preliminary experiments and regular controls within the experiments; data not shown). Control cells were only treated with medium. The proportion of treated cells in relation to untreated controls was determined 5, 24, 48 and 96 h after the beginning of the drug exposure. The medium for 96-h experiments was renewed before cell treatment (24 h after inoculation). The medium-compound mix was discarded at the time points mentioned above and cells were fixed with 2% glutaraldehyde (Sigma-Aldrich) in PBS for 20 min. Glutaraldehyde was removed and cells were dyed for 30 min with 0.1% crystal violet (Roth GmbH, Karlsruhe, Germany) in deionized water. After washing with deionized water, the plates were air-dried. Subsequently, crystal violet was solubilized out of the cells by adding 2% Triton X-100 (Sigma-Aldrich, Steinheim, Germany) in deionized water. After 1 h of incubation, absorbance was measured at 570 nm using a 96-well microtiter plate reader (MRX microplate reader, Dynatech Laboratories, El Paso, US). Experiments were performed in six to eight biological replicates with two technical replicates for each combination of cell type, incubation time and pharmacologic compound concentration. The ratios of mean optical density of the duplicate to mean optical density of the associated controls were used for dose-response curves.
(§2) The cytotoxicity of BA was evaluated using the CellTiter 96® AQueous One Solution Cell Proliferation Assay (MTS) (Promega GmbH, Mannheim, Germany). Cells were seeded into 96-well microtiter plates with the appropriate cell densities to achieve confluence after 48 h (MelDuWi 30.000 cells/well; PriFi1, PriFi2, eRGO1 20.000 cells/well). After 48 h, these cells were treated in accordance with the CVS assay. Experiments were stopped at the same time points as the CVS assay. The medium for the 96-h experiments was renewed before treatment. The MTS was applied in accordance with the manufacturer’s instructions. After 1 h incubation, the plate absorbance was measured at 490 nm using a 96-well microtiter plate reader (MRX microplate reader, Dynatech Laboratories, El Paso, US). Experiments were performed in six to eight biological replicates with two technical replicates for each combination of pharmacologic compound, cell type, incubation time and concentration.
(§3) Technical duplicates with a coefficient of variation of more than 20% were excluded from the analysis of the cell assays. The pharmacodynamic model 108 of Phoenix® WinNonlin® software (version 8.1, Certara, USA) was used to determine half-maximal inhibitory concentrations (IC50 values). Further statistical analysis was performed with R 3.5.1 [60]. A generalized additive model was fitted for both MTS and CVS using the ‘mgcv’ package to estimate the effects of the BA concentration, cell line and duration of incubation on the ratio of the mean optical density of the duplicates from six to eight replicates to the mean optical density of the associated controls. The effect of concentration was modelled as a smoothed term interacting with the duration of incubation using a thin plate regression spline. The P-values were obtained by performing a Wald test for each parameter. Post-hoc comparisons for the cell line and duration of incubation were performed using the ‘multcomp’ package with single-step adjustment of the P-values. […]

[3] = tested on: primary equine dermal fibroblasts PriFi2; experiment: as above; assay type: cell-based, horse; conditions: Equus caballus, Fibroblast, mean (95% CI), 6–8 experiments
Protocol: as §1, §2, §3

[4] = tested on: primary equine melanoma cells eRGO1; experiment: as above; assay type: cell-based, horse; conditions: Equus caballus, mean (95% CI), 6–8 experiments
Protocol: as §1, §2, §3

[5] = tested on: primary equine melanoma cells MelDuWi; experiment: as above; assay type: cell-based, horse; conditions: Equus caballus, mean (95% CI), 6–8 experiments
Protocol: as §1, §2, §3

[6] = tested on: primary equine dermal fibroblasts PriFi1; experiment: Crystal violet staining (CVS) proliferation assay; assay type: cell-based, horse; conditions: Equus caballus, Fibroblast, mean (95% CI), 6–8 experiments
Protocol: as §1
(§4) Technical duplicates with a coefficient of variation of more than 20% were excluded from the analysis of the cell assays. The pharmacodynamic model 108 of Phoenix® WinNonlin® software (version 8.1, Certara, USA) was used to determine half-maximal inhibitory concentrations (IC50 values). Further statistical analysis was performed with R 3.5.1 [60]. A generalized additive model was fitted for both MTS and CVS using the ‘mgcv’ package to estimate the effects of the BA concentration, cell line and duration of incubation on the ratio of the mean optical density of the duplicates from six to eight replicates to the mean optical density of the associated controls. The effect of concentration was modelled as a smoothed term interacting with the duration of incubation using a thin plate regression spline. The P-values were obtained by performing a Wald test for each parameter. Post-hoc comparisons for the cell line and duration of incubation were performed using the ‘multcomp’ package with single-step adjustment of the P-values. Plots were produced with ggplot2 [63]. Statistical significance was set at P < 0.05.

[7] = tested on: primary equine dermal fibroblasts PriFi2; experiment: Crystal violet staining (CVS) proliferation assay; assay type: cell-based, horse; conditions: Equus caballus, Fibroblast, mean (95% CI), 6–8 experiments
Protocol: as §1, §4

[8] = tested on: primary equine melanoma cells eRGO1; experiment: Crystal violet staining (CVS) proliferation assay; assay type: cell-based, horse; conditions: Equus caballus, mean (95% CI), 6–8 experiments
Protocol: as §1, §4

[9] = tested on: primary equine melanoma cells MelDuWi; experiment: Crystal violet staining (CVS) proliferation assay; assay type: cell-based, horse; conditions: Equus caballus, mean (95% CI), 6–8 experiments
Protocol: as §1, §4

[10] = tested on: equine melanoma cells MelJess; parameters: method as in PMID 26772157; conditions: 96 h incubation, read-out: IC50, sulforhodamine B assay; cited from earlier work
[11] = tested on: primary equine melanoma cells compared to primary equine dermal fibroblasts; experiment: Selectivity to tumor cells compared to normal cells (MTS and CVS assays); assay type: cell-based, horse; conditions: equine melanoma cells eRGO1, MelDuWi vs fibroblasts PriFi1, PriFi2
Protocol: The inhibitory effect of BA on cell proliferation was evaluated using a modified crystal violet staining (CVS) assay. In brief, cells were seeded into 96-well microtiter plates with a density of 5000 cells/well to avert confluence of the cells during the experimental period. Twenty-four hours later, the cells were treated with serial dilutions of BA dissolved in DMSO and medium at nine different concentrations ranging from 1 to 100 μmol/L. The highest concentration of DMSO solvent was 0.5% in 100 μmol/L, which had neither an impact on the cell proliferation rate nor on the cell survival rate (preliminary experiments and regular controls within the experiments; data not shown). Control cells were only treated with medium. The proportion of treated cells in relation to untreated controls was determined 5, 24, 48 and 96 h after the beginning of the drug exposure. […] After 1 h of incubation, absorbance was measured at 570 nm using a 96-well microtiter plate reader (MRX microplate reader, Dynatech Laboratories, El Paso, US). […]
The cytotoxicity of BA was evaluated using the CellTiter 96® AQueous One Solution Cell Proliferation Assay (MTS) (Promega GmbH, Mannheim, Germany). […] After 1 h incubation, the plate absorbance was measured at 490 nm using a 96-well microtiter plate reader (MRX microplate reader, Dynatech Laboratories, El Paso, US). […]

[12] = tested on: equine melanoma cells MelDuWi; parameters: method as in PMID 26772157; conditions: 96 h incubation, read-out: IC50, sulforhodamine B assay; cited from earlier work
[13] = 1% BA with 20% medium-chain triglycerides in Basiscreme DAC, mean ± SD

SMILES: C=C(C)[C@@H]1CC[C@]2(CO)CC[C@]3(C)[C@H](CC[C@@H]4[C@@]5(C)CC[C@H](O)C(C)(C)[C@@H]5CC[C@]43C)[C@@H]12 [betulin]
side effects of topical treatment (actinic keratoses): did not lead to any side effects

BA amount applied analyzed in the skin [1, 13]: 24 ± 1% | amount of BA applied detected in the acceptor media [1, 13]: 18 ± 11% | amount of BA applied detected in the cotton swabs ([1]; 1% BA with 20% medium-chain triglycerides in Basiscreme DAC, remaining donor formulation, mean ± SD): 56 ± 13% | recovery at 24 h, 1 % ([1]; both sexes, horse, 1% BA with 20% medium-chain triglycerides in Basiscreme DAC, mean ± SD, n = 7, read-out: overall BA recovery): 98 ± 7% | BA amount found in the blade cleaning tissues ([1]; part of the amount in skin, 1% BA cream, mean ± SD): 9 ± 7% | concentration of BA in skin ([1]; skin depth 710 μm, 1% BA cream, mean ± SD (SD 31 μmol/L)): 55.8 µM | concentration of BA in skin ([1]; skin depth 810 μm, 1% BA cream, mean ± SD (SD 38 μmol/L)): 39.6 µM | IC50 ([8]; eRGO1, 24 h treatment): 25.9 µM | IC50 ([8]; eRGO1, 48 h treatment): 21.2 µM | IC50 ([8]; eRGO1, 96 h treatment): 19.6 µM | IC50 ([9]; 24 h treatment): 49.2 µM | IC50 ([9]; 48 h treatment): 35.8 µM | IC50 ([9]; 96 h treatment): 21.6 µM
SMILES: C=C(C)[C@@H]1CC[C@]2(C(=O)O)CC[C@]3(C)[C@H](CC[C@@H]4[C@@]5(C)CC[C@H](O)C(C)(C)[C@@H]5CC[C@]43C)[C@@H]12 [betulinic acid, Betulinic acid]
IC50 ([2]; PriFi1, 24 h treatment): 20.4 µM | IC50 ([2]; PriFi1, 48 h treatment): 18 µM | IC50 ([2]; PriFi1, 96 h treatment): 13.8 µM | IC50 ([3]; PriFi2, 24 h treatment): 24.8 µM | IC50 ([3]; PriFi2, 48 h treatment): 22.7 µM | IC50 ([3]; PriFi2, 96 h treatment): 13.3 µM | IC50 ([4]; eRGO1, 24 h treatment): 22.8 µM | IC50 ([4]; eRGO1, 48 h treatment): 20.7 µM | IC50 ([4]; eRGO1, 96 h treatment): 12.7 µM | IC50 ([5]; 24 h treatment): 34.6 µM | IC50 ([5]; 48 h treatment): 31.7 µM | IC50 ([5]; 96 h treatment): 23.6 µM | IC50 ([6]; PriFi1, 24 h treatment): 58 µM | IC50 ([6]; PriFi1, 48 h treatment): 52.2 µM | IC50 ([6]; PriFi1, 96 h treatment): 14.5 µM | IC50 ([7]; PriFi2, 24 h treatment): 30.3 µM | IC50 ([7]; PriFi2, 48 h treatment): 29.1 µM | IC50 ([7]; PriFi2, 96 h treatment): 13.8 µM | IC50 [10]: 33.4 µM | selectivity to tumor cells compared to normal cells [11]: could not be demonstrated | IC50 [12]: 33.1 µM
